Results: PubChem BioAssay AID2060625 (Molecular Pharmacology Branch, DTP, NCI, 2025)
“And” between values parts separate entries of the source, which are not always exact repeats. Equal values may be shown once.

Test system: 186277-243-T-J2-PDC spheroids with HUVEC/MSC, viability
Experiment: Anticancer human tumor 186277-243-T-J2-PDC patient-derived colon adenocarcinoma cell line growth inhibition [CLK]
Conditions: for viability, T/C: stronger effect = lower value
Summary of the method: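 Multi-cell-type spheroids combined patient-derived tumor cells with HUVEC endothelial cells and human mesenchymal stem cells. Paired agents were dosed in half-log steps down from about clinical Cmax, or from 10 microM where Cmax was unknown.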

[1] = curve of first compound, second compound 0.0316 µM
[2] = curve of first compound, second compound 0.1 µM
[3] = curve of first compound, second compound 0.316 µM
[4] = curve of first compound, second compound 1 µM
[5] = curve of first compound, second compound 3.16 µM
[6] = curve of first compound, second compound 10 µM
[7] = second compound 0.0316 µM, first compound 0.0316 µM
[8] = second compound 0.0316 µM, first compound 0.1 µM
[9] = second compound 0.1 µM, first compound 0.0316 µM
[10] = second compound 0.1 µM, first compound 0.1 µM
[11] = second compound 0.316 µM, first compound 0.0316 µM
[12] = second compound 0.316 µM, first compound 0.1 µM
[13] = second compound 1 µM, first compound 0.0316 µM
[14] = second compound 1 µM, first compound 0.1 µM
[15] = second compound 3.16 µM, first compound 0.0316 µM
[16] = second compound 3.16 µM, first compound 0.1 µM
[17] = second compound 10 µM, first compound 0.0316 µM
[18] = second compound 10 µM, first compound 0.1 µM
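Further: compound exposure lasted seven days before readout.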
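Wherever viability, T/C is given: 100% = DMSO vehicle control wells.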

Cn1ncnc1[C@H]1c2n[nH]c(=O)c3cc(F)cc(c23)N[C@@H]1c1ccc(F)cc1 + CN1CCN(c2cc(C(=O)Nc3cc4cc(-c5cnn(C)c5)ccc4cn3)ccn2)CC1
IC50 [1]: > 100 nM
IC50 [2]: > 100 nM
IC50 [3]: < 0.316 nM
IC50 [4]: < 0.316 nM
IC50 [5]: < 0.316 nM
IC50 [6]: < 0.316 nM
viability, T/C (second compound 0.0316 µM, first compound 0.000316 µM): 86.9%
viability, T/C (second compound 0.0316 µM, first compound 0.001 µM): 104%
viability, T/C (second compound 0.0316 µM, first compound 0.00316 µM): 108%
viability, T/C (second compound 0.0316 µM, first compound 0.01 µM): 114%
viability, T/C [7]: 95.1%
viability, T/C [8]: 113%
viability, T/C (second compound 0.1 µM, first compound 0.000316 µM): 73.9%
viability, T/C (second compound 0.1 µM, first compound 0.001 µM): 75.6%
viability, T/C (second compound 0.1 µM, first compound 0.00316 µM): 69%
viability, T/C (second compound 0.1 µM, first compound 0.01 µM): 82.6%
viability, T/C [9]: 69.8%
viability, T/C [10]: 58.6%
viability, T/C (second compound 0.316 µM, first compound 0.000316 µM): 20.9%
viability, T/C (second compound 0.316 µM, first compound 0.001 µM): 19.2%
viability, T/C (second compound 0.316 µM, first compound 0.00316 µM): 22.7%
viability, T/C (second compound 0.316 µM, first compound 0.01 µM): 20%
viability, T/C [11]: 21.9%
viability, T/C [12]: 19.8%
viability, T/C (second compound 1 µM, first compound 0.000316 µM): 2.81%
viability, T/C (second compound 1 µM, first compound 0.001 µM): 0.25%
viability, T/C (second compound 1 µM, first compound 0.00316 µM): 0.86%
viability, T/C (second compound 1 µM, first compound 0.01 µM): 2.93%
viability, T/C [13]: 1.61%
viability, T/C [14]: 0.53%
viability, T/C (second compound 3.16 µM, first compound 0.000316 µM): 2.49%
viability, T/C (second compound 3.16 µM, first compound 0.001 µM): 0.69%
viability, T/C (second compound 3.16 µM, first compound 0.00316 µM): 1.36%
viability, T/C (second compound 3.16 µM, first compound 0.01 µM): 1.46%
viability, T/C [15]: 2.26%
viability, T/C [16]: 0.62%
viability, T/C (second compound 10 µM, first compound 0.000316 µM): 1.78%
viability, T/C (second compound 10 µM, first compound 0.001 µM): 0.48%
viability, T/C (second compound 10 µM, first compound 0.00316 µM): 0.42%
viability, T/C (second compound 10 µM, first compound 0.01 µM): 0.58%
viability, T/C [17]: 0.53%
viability, T/C [18]: 0.46%

CC(=O)O[C@H]1C(=O)[C@@]2(C)[C@H]([C@H](OC(=O)c3ccccc3)[C@]3(O)C[C@H](OC(=O)[C@H](O)[C@@H](NC(=O)c4ccccc4)c4ccccc4)C(C)=C1C3(C)C)[C@]1(OC(C)=O)CO[C@@H]1C[C@@H]2O + CNC(=O)c1ccc(Nc2nc(OC3CCCC3)c3c(-c4ccc5nc(C)oc5c4)c[nH]c3n2)c(OC)c1
IC50 [1]: 260 nM
IC50 [2]: > 10000 nM
IC50 [3]: < 31.6 nM
IC50 [4]: < 31.6 nM
IC50 [5]: < 31.6 nM
IC50 [6]: < 31.6 nM
viability, T/C [7]: 73.2%
viability, T/C [8]: 73.2%
viability, T/C (second compound 0.0316 µM, first compound 0.316 µM): 45.2%
viability, T/C (second compound 0.0316 µM, first compound 1 µM): 26.3%
viability, T/C (second compound 0.0316 µM, first compound 3.16 µM): 27.7%
viability, T/C (second compound 0.0316 µM, first compound 10 µM): 59.1%
viability, T/C [9]: 64.4%
viability, T/C [10]: 85.1%
viability, T/C (second compound 0.1 µM, first compound 0.316 µM): 128%
viability, T/C (second compound 0.1 µM, first compound 1 µM): 142%
viability, T/C (second compound 0.1 µM, first compound 3.16 µM): 156%
viability, T/C (second compound 0.1 µM, first compound 10 µM): 166%
viability, T/C [11]: 40.4%
viability, T/C [12]: 64%
viability, T/C (second compound 0.316 µM, first compound 0.316 µM): 96%
viability, T/C (second compound 0.316 µM, first compound 1 µM): 105%
viability, T/C (second compound 0.316 µM, first compound 3.16 µM): 110%
viability, T/C (second compound 0.316 µM, first compound 10 µM): 94.6%
viability, T/C [13]: 31.5%
viability, T/C [14]: 44.1%
viability, T/C (second compound 1 µM, first compound 0.316 µM): 53.2%
viability, T/C (second compound 1 µM, first compound 1 µM): 53.3%
viability, T/C (second compound 1 µM, first compound 3.16 µM): 61%
viability, T/C (second compound 1 µM, first compound 10 µM): 65.5%
viability, T/C [15]: 32.4%
viability, T/C [16]: 44.6%
viability, T/C (second compound 3.16 µM, first compound 0.316 µM): 40.2%
viability, T/C (second compound 3.16 µM, first compound 1 µM): 48.4%
viability, T/C (second compound 3.16 µM, first compound 3.16 µM): 44.7%
viability, T/C (second compound 3.16 µM, first compound 10 µM): 50%
viability, T/C [17]: 30.1%
viability, T/C [18]: 36.4%
viability, T/C (second compound 10 µM, first compound 0.316 µM): 41%
viability, T/C (second compound 10 µM, first compound 1 µM): 39.5%
viability, T/C (second compound 10 µM, first compound 3.16 µM): 45.2%
viability, T/C (second compound 10 µM, first compound 10 µM): 47.6%

C=CC(=O)N1CCN(c2nc(=O)n(-c3c(C)ccnc3C(C)C)c3nc(-c4c(O)cccc4F)c(F)cc23)C(C)C1 (stereo unspecified)
viability, T/C (compound 0.0316 µM): 103% and 87.6%
viability, T/C (compound 0.1 µM): 91.4% and 96.3%
viability, T/C (compound 0.316 µM): 97.5% and 90.2%
viability, T/C (compound 1 µM): 80.2% and 105%
viability, T/C (compound 3.16 µM): 107% and 105%
viability, T/C (compound 10 µM): 95.2% and 98.2%
IC50 (curve of compound): > 10000 nM
